Results published in patent publication US6383276B1, “Azomethine compound and oily magenta ink” (Fuji Photo Film Co., Ltd., priority 1999, dated 2002).

Legend:
[1] = Absorption maximum and molar extinction coefficient of ethyl acetate solutions; assay type: physicochemical; settings: ethyl acetate solution
Procedure: With respect to each of the ethyl acetate-base magenta inks [ethyl acetate solutions of the compounds (Ia-1), (Ia-6), (Ia-12), (Ia-13), (Ia-14) and (Ia-15)] prepared in Example 4, the absorption maximum (λmax) and molar extinction coefficient (ε) were measured.
With respect to each of the ethyl acetate-base magenta inks [ethyl acetate solutions of the compounds (X-1), (X-2), (X-3) and (X-4)] prepared in Comparison Example 1, the absorption maximum (λmax) was measured.

[2] = Measurement of solubility in ethyl acetate (Example 6, Comparison Example 1); assay type: physicochemical; settings: 25° C. for 20 hours, filtered through 0.2 μm filter, ink concentrated
Procedure: With respect to each of the azomethine compounds (Ia-6), (Ia-12) and (Ia-14), 600 mg of the compound was placed in a lidded test tube. After 2 ml of ethyl acetate was added, the mixture was treated with an ultrasonic cleaner for 30 minutes. The resultant liquid was heated and stirred at 65° C. for 1 hour, and then cooled to room temperature. After leaving the test tube in a constant temperature bath at 25° C. for 20 hours, solid particles were filtered off with a micro filter having the pore size of 0.2 μm to prepare an oily magenta ink.
Each prepared ink was concentrated to measure the solubility, but solid (crystallite) was not deposited.
With respect to each of the following azomethine compounds (X-1), (X-2), (X-3) and (X-4), 30 mg of the compound was placed in a lidded test tube. After 2 ml of ethyl acetate was added, the mixture was treated with an ultrasonic cleaner for 30 minutes. The resultant liquid was heated and stirred at 65° C. for 1 hour, and then cooled to room temperature. After leaving the test tube in a constant temperature bath at 25° C. for 20 hours, solid particles were filtered off with a micro filter having the pore size of 0.2 μm to prepare an oily magenta ink. [drawing 13]
Each prepared ink was concentrated to measure the solubility.

| SMILES | Absorption maximum (λmax) ([1]; Table 1) | Molar extinction coefficient (ε) ([1]; Table 1) | Absorption maximum (λmax) ([1]; Table 2) | Solubility [2] |
| --- | --- | --- | --- | --- |
| CCCCCCC(Oc1ccc(C(C)(C)CC)cc1C(C)(C)CC)C(=O)NCC(C)c1nc2n(n1)N=C(C)C2=Nc1ccc(N(CCO)CCC#N)cc1C (stereo not drawn) [Ia-6] | 522 nm | 5.2 × 10^4 | 522 nm | 30.2 wt. % or more |
| CCCCCCC(Oc1ccc(C(C)(C)CC)cc1C(C)(C)CC)C(=O)NCC(C)c1nc2n(n1)N=C(C)C2=Nc1ccc(N(CC)CCC#N)cc1 (stereo not drawn) [Ia-1] | 512 nm | 5.0 × 10^4 |  |  |
| CCCCCCCCCCCCCCOC(=O)CCC(=O)Nc1ccc(-c2nc3n(n2)N=C(C(C)(C)C)C3=Nc2ccc(N(CCC#N)CCCC)cc2)cc1 [Ia-12] | 519 nm | 4.8 × 10^4 | 519 nm | 30.1 wt. % or more |
| CCCCCCC(Oc1ccc(C(C)(C)CC)cc1C(C)(C)CC)C(=O)Nc1ccc(-c2nc3n(n2)N=C(C(C)(C)C)C3=Nc2ccc(N(CCO)CCC#N)cc2C)cc1 (stereo not drawn) [Ia-15] | 532 nm | 4.9 × 10^4 |  |  |
| CCCCCCC(Oc1ccc(C(C)(C)CC)cc1C(C)(C)CC)C(=O)Nc1ccc(-c2nc3n(n2)N=C(C(C)(C)C)C3=Nc2ccc(N(CC)CCC#N)cc2)cc1 (stereo not drawn) [Ia-13] | 517 nm | 4.6 × 10^4 |  |  |
| CCCCCCC(Oc1ccc(C(C)(C)CC)cc1C(C)(C)CC)C(=O)Nc1ccc(-c2nc3n(n2)N=C(C(C)(C)C)C3=Nc2ccc(N(CCC#N)CCCC)cc2)cc1 (stereo not drawn) [Ia-14] | 520 nm | 4.8 × 10^4 | 520 nm | 30.1 wt. % or more |

Second part, the molecule after the results:

| Absorption maximum (λmax) ([1]; Table 1) | Molar extinction coefficient (ε) ([1]; Table 1) | Absorption maximum (λmax) ([1]; Table 2) | Solubility [2] | SMILES |
| --- | --- | --- | --- | --- |
|  |  | 511 nm | 1.72 wt. % | CCN(CCC#N)c1ccc(N=C2C(C)=Nn3nc(C(C)CNC(=O)CCCOc4ccc(OC)cc4)nc32)cc1 (stereo not drawn) [X-3, reference compound] |
|  |  | 536 nm | 0.63 wt. % | CCN(CC)c1ccc(N=C2C(C)=Nn3nc(C(C)CNC(=O)CCCOc4ccc(OC)cc4)nc32)c(C)c1 (stereo not drawn) [X-4, reference compound] |
|  |  | 504 nm | 0.18 wt. % | COc1ccc(OCCN(CCC#N)c2ccc(N=C3C(C)=Nn4nc(C(C)CN5C(=O)c6ccccc6C5=O)nc43)cc2)cc1 (stereo not drawn) [X-1, reference compound] |
